The source of these data is patent publication US6323196A, “Galanthamine derivatives as acetylcholinesterase inhibitors” (priority 1993, dated 2001).

The term IC50 denotes the midpoint of a concentration-inhibition curve.

Structures can show the parent of a compound that is named as a salt. Where two headings read alike, the source gives them in different places.

Test [1] concerns the target acetylcholinesterase (Homo sapiens, UniProt P22303). Briefly: Acetylcholinesterase Inhibition Assay (photometric method). The format is biochemical.
The test system of test [2] is mice. Type of test: in vivo. To be noted: SDDA; dose 0.003 mg/kg, s.c.; retest after 24 hours. The method, then: This utility can also be ascertained by determining the ability of these compounds to restore cholinergically deficient memory in the Dark Avoidance Assay. In this assay mice are tested for their ability to remember an unpleasant stimulus for a period of 24 hours. A mouse is placed in a chamber that contains a dark compartment; a strong incandescent light drives it to the dark compartment, where arn electric shock is administered through metal plates on the floor. The animal is removed from the testing apparatus and tested again, 24 hours later, for the ability to remember the electric shock.
If scopolamine, an anticholinergic that is known to cause memory impairment, is administered before an animal's initial exposure to the test chamber, the animal re-enters the dark compartment shortly after being placed in the test chamber 24 hours later. This effect of scopolamine is blocked by an active test compounds, resulting in a greater interval before re-entry into the dark compartment.
The test results are expressed as the percent of a group of animals in which the effect of scopolanine is blocked, as manifested by an increased interval between being placed in the test chamber and re-entering the dark compartment. Results of Dark Avoidance Assay for some of the compounds of this invention are presented in Table II along with a result for a reference compounds.

Sequence of acetylcholinesterase (P22303 32-614): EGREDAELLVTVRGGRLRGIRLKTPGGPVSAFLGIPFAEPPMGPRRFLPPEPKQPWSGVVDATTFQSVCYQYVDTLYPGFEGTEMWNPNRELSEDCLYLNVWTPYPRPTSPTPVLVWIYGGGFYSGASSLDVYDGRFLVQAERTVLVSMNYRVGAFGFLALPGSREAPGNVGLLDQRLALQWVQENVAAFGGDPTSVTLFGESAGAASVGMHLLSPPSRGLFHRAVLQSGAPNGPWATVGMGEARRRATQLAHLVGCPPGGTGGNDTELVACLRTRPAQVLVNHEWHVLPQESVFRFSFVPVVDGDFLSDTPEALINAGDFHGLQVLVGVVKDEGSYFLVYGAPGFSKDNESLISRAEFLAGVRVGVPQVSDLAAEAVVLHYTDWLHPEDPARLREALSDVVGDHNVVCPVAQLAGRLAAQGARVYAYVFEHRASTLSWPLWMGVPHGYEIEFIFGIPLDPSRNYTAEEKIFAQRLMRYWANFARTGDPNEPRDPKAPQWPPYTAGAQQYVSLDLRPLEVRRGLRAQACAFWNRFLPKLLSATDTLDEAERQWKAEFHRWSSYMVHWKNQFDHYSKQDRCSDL

For the compound `CNC(=O)Oc1ccc2c3c1O[C@H]1C[C@@H](O)C=C[C@@]31CCN(C)C2` [6-O-Demethyl-6-O-(methylaminocarbonyl)galanthamine], the IC50 in test [1] (photometric method, read-out: IC50 CHE I (acetylcholinesterase inhibition)) amounted to 2 nM. In addition, in test [2], the “Percent of Animals with Scopolamine Induced Memory Deficit Reversal” value stood at 27%.

For `CNC(=O)Oc1ccc2c3c1O[C@H]1C[C@@H](OC(=O)C(C)C)C=C[C@@]31CCN(C)C2` [6-O-Demethy-6-O-(methylaminocarbonyl)-3-O-(propan-2-yl-carbonyl)galanthamine Hydrochloride], in test [1], the IC50 turned out to be 47 nM.
